Consider six molecules from BindingDB's records for patent US20250243196 (The Cleveland Clinic Foundation, 2025).

Molecules are shown by their SMILES.

One may read the IC50 as the concentration that inhibits the measured activity by half.

Chain of Citron Rho-interacting kinase (O14578 whole entry): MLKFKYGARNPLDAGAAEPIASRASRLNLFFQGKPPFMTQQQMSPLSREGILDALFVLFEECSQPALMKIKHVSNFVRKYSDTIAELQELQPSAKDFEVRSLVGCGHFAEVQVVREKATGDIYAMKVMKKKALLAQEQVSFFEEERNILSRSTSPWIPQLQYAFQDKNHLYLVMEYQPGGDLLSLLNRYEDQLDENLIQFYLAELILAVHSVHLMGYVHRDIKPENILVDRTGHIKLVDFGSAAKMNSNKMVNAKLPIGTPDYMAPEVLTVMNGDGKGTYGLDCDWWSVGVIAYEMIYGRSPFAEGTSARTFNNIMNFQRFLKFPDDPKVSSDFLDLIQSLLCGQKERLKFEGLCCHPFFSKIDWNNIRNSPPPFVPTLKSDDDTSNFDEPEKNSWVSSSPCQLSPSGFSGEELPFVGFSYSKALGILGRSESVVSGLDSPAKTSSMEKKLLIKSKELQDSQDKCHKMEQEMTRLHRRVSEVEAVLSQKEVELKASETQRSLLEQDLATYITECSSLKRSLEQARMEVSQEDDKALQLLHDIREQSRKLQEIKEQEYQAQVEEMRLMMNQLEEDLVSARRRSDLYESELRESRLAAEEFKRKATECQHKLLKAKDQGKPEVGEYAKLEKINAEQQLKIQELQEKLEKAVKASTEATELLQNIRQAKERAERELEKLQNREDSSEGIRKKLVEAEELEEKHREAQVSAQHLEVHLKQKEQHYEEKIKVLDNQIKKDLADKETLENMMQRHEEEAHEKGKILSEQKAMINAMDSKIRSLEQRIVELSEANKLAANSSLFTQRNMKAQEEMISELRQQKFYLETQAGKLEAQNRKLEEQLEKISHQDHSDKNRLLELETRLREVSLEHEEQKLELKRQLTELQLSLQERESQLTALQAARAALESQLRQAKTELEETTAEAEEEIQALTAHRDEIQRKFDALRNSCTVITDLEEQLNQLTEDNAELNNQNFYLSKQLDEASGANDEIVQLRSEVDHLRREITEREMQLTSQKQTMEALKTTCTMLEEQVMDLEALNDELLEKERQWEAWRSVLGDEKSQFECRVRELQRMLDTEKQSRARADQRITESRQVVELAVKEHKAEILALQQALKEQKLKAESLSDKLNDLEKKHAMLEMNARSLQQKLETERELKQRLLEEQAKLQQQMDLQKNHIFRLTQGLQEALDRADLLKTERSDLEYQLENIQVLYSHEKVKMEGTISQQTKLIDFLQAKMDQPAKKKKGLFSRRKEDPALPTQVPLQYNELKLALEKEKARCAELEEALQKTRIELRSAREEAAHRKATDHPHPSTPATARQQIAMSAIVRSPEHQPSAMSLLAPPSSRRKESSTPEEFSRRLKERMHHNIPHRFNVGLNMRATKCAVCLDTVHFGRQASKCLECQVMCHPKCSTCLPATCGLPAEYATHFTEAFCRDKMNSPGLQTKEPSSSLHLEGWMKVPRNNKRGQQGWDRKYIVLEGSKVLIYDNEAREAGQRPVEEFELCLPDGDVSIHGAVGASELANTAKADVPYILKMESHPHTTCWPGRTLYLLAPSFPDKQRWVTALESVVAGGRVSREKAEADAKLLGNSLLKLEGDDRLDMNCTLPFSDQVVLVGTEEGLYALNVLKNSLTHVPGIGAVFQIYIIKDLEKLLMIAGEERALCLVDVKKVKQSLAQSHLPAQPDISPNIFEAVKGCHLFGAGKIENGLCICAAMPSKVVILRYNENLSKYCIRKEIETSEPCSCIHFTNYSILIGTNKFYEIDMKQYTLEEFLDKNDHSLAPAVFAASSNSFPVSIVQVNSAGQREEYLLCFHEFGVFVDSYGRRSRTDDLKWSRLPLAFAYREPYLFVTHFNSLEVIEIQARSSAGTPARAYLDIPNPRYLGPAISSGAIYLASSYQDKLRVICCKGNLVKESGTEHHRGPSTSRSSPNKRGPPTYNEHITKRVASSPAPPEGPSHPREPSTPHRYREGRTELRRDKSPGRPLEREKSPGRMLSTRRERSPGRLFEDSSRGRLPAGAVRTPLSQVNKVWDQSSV

This assay addresses Citron Rho-interacting kinase (Homo sapiens, UniProt O14578). The assay can be described thus: TR-FRET Based Assay.
Excerpt: Not found
For orientation: Time-resolved FRET reads energy transfer from a long-lived donor to a nearby acceptor.
`NC(Cc1ccc(Cl)cc1)C(=O)Nc1ccc(-c2ccnc3[nH]ccc23)cc1` (stereo unspecified) [US20250243196, Compound F-123] yielded an IC50 of 1290 nM.

The molecule `CNC(Cc1ccccc1)C(=O)Nc1ccc(-c2ccnc3[nH]ccc23)cc1` (stereo unspecified) [US20250243196, Compound F-121] yielded an IC50 of 3000 nM.

`NC(Cc1ccccc1Cl)C(=O)Nc1ccc(-c2ccnc3[nH]ccc23)cc1` (stereo unspecified) [US20250243196, Compound F-125] returned an IC50 of 1770 nM.

`NC(Cc1cccc(Cl)c1)C(=O)Nc1ccc(-c2ccnc3[nH]ccc23)cc1` (stereo unspecified) [US20250243196, Compound F-124] showed an IC50 of 536 nM.

For `CN(C)C(Cc1ccccc1)C(=O)Nc1ccc(-c2ccnc3[nH]ccc23)cc1` (stereo unspecified) [US20250243196, Compound F-122], the IC50 came to 1500 nM.

Molecule `NC(CC1CCOCC1)C(=O)Nc1ccc(-c2ccnc3[nH]ccc23)cc1` (stereo unspecified) [US20250243196, Compound F-120] registered an IC50 of 153 nM.
